# According to patent US20030049697A1, “Family of mechanosensitive human potassium channels activated by polyunsaturated fatty acids and their use” (CENTRE NATIONAL DE LA RECHERCHE SCIENTIFIQUE, C.N.R.S., priority 2000, published 2003):
# How the values were obtained:
# hTRAAK [1] = molecular target: T1, hTRAAK (Homo sapiens, UniProt Q9NYG8); assay: Whole cell configuration electrophysiology of hTRAAK current in transfected COS cells; format: cell-based
# T1 construct: expressed in transfected cells; host or cells: COS-7 cells, transient DEAE-dextran transfection of pIRES-CD8.hTRAAK
# T1 sequence (Q9NYG8 1-393): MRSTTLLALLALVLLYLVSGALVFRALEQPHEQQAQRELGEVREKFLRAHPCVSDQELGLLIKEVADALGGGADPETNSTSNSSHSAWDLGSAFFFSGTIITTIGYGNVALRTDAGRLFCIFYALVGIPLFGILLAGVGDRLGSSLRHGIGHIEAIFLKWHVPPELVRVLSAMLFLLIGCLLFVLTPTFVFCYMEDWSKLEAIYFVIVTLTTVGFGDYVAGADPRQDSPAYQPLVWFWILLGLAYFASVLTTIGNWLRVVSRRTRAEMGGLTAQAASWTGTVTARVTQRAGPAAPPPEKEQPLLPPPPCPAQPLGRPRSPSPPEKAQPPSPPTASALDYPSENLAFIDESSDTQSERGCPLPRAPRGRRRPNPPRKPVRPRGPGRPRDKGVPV
# Experimental: Electrophysiological experiments were performed in COS cells transfected in a temporary manner.
# It has been shown that certain members of the family of K^+ channels with two P domains (TREK-1 and TASK-1) are opened by volatile general anesthetics (Patel et al., 1999). We, therefore, also investigated the effect of chloroform on hTRAAK.
# In fact, the opening of the channel is mediated by a deformation of the membrane (Maingret et al., 1999 (a); Patel et al., 1998).
# The COS-7 cells were maintained in Eagle medium as modified by Dulbecco supplemented with 10% fetal calf's serum. The plasmid pIRES-cD8-hTRAAK was transfected using the conventional DEAE dextran procedure. The positive cells were visualized 48 h after transfection using the method of beads covered by the anti-CD8 antibody (Maingret et al., 1999 (a); Maingret et al., 1999 (b)).
# For the experiments on whole cells and the outside-in experiments, the pipette solution (INT) contained 150 mM KCl, […], 5 mM EGTA and 10 mM HEPES, pH adjusted with KOH. The bath solution (EXT) contained 150 mM NaCl, 5 mM KCl, 3 mM MgCl2, 1 mM CaCl2 and 10 mM HEPES, pH 7.4 adjusted with NaOH. For the inside-out experiments, the solution in the pipette was EXT and the bath solution was INT. The EXT solution rich in K^+ contained 150 mM KCl in place of 150 mM NaCl. To study the selectivity of the ions, the relationships between the current and the voltage were obtained at different ext. K^+ concentrations. For each concentration, NaCl was replaced in the EXT solution by equimolar KCl.
# All of the products were obtained from Sigma. The fatty acids were dissolved in ethanol at the concentration of 100 mM, put under argon and stored at […] for one week.
# hTRAAK [2] = molecular target: T1, hTRAAK; assay: Excised patch (outside-out configuration) recording of hTRAAK in transfected COS cells; format: cell-based
# Experimental: Under physiological conditions, the current induced by AA is outward rectifying and changes direction at […], n=7 (FIG. 5A). When the exterior Na^+ is replaced by K^+, the current becomes linear and the direction change potential is −0.6±0.8 mV, n=7 (FIG. 5B). hTRAAK is also activated by the polyunsaturated acid decosahexaenoate (10 μM, n=3), but is insensitive to the saturated fatty acids myristate, palmitate, stearate and arachinate (10 μM, n=6 to 8). […] The stimulation by AA of hTRAAK remains then when the patch is excised (FIG. 5C). The current induced by AA observed in an outside-out configuration is outward rectifying and changes direction at the reverse potential of K^+ (FIG. 5C, box). […] In fact, the opening of the channel is mediated by a deformation of the membrane (Maingret et al., 1999 (a); Patel et al., 1998). FIG. 5D illustrates the mechanical sensitivity of hTRAAK. In the reverse patch configuration, the activity of the channel is almost absent at atmospheric pressure. Application of negative pressure opens the channels in a dose-dependent manner.
# The COS-7 cells were maintained in Eagle medium as modified by Dulbecco supplemented with 10% fetal calf's serum. The plasmid pIRES-cD8-hTRAAK was transfected using the conventional DEAE dextran procedure. […]
compound,measurement,setting,value
Nc1nc2ccc(OC(F)(F)F)cc2s1 [riluzole],activation of hTRAAK,hTRAAK [1]; no concentration or data printed,activated
CC/C=C\C/C=C\C/C=C\C/C=C\C/C=C\C/C=C\CCC(=O)O [decosahexaenoate],activation of hTRAAK by polyunsaturated fatty acid,"hTRAAK [1]; 10 μM, n=3",activated
ClC(Cl)Cl [chloroform],effect on the channel's activity,"hTRAAK [1]; 0.8 mM, n=8",no effect
COc1ccc(Cl)cc1C(=O)NCCc1ccc(S(=O)(=O)NC(=O)NC2CCCCC2)cc1 [glibenclamide],sensitivity of hTRAAK to K+ channel blocking agent,"hTRAAK [1]; 10 μM, whole cell configuration",insensitive
Nc1ccncc1 [4AP],sensitivity of hTRAAK to K+ channel blocking agent,"hTRAAK [1]; 3 mM, whole cell configuration",insensitive
CCCCC/C=C\C/C=C\C/C=C\C/C=C\CCCC(=O)O [arachidonic acid],potentiation of human TRAAK activity,"hTRAAK [1]; 10 μm, whole cell configuration, at 0 mV, n=19",630±101%
same,reversibility of activation,hTRAAK [1]; by means of washing,completely reversible
same,direction change potential of the induced current,"hTRAAK [1]; exterior Na+ replaced by K+, n=7",−0.6±0.8 mV
same,potential at which the induced current changes direction,"hTRAAK [1]; physiological conditions, n=7",-80.6 ± 0.9 mV
same,stimulation of hTRAAK when the patch is excised,hTRAAK [2],remains
CCCCCCCCCCCCCCCCCCCC(=O)O [arachinate],sensitivity of hTRAAK to saturated fatty acids,"hTRAAK [1]; 10 μM, n=6 to 8",insensitive
[Ba+2] [barium],sensitivity of hTRAAK to K+ channel blocking agent,"hTRAAK [1]; 1 mM, whole cell configuration",insensitive
C=C[C@H]1C[N@@]2CC[C@H]1C[C@@H]2[C@@H](O)c1ccnc2ccc(OC)cc12 [quinidine],sensitivity of hTRAAK to K+ channel blocking agent,"hTRAAK [1]; 100 μm, whole cell configuration",insensitive
CC[N+](CC)(CC)CC [TEA],sensitivity of hTRAAK to K+ channel blocking agent,"hTRAAK [1]; 10 mM, whole cell configuration",insensitive
